Measured values: US4636490A, “Novel peptidic derivatives inhibiting gastric secretion, process for preparing them and drugs containing them” (Sanofi, priority 1983, dated 1987)
Residues, ends and D or L forms follow the SMILES beside them. *: point of attachment. Cbz = O=C(OCc1ccccc1)*; Boc = CC(C)(C)OC(=O)*

Key:
[1] = tested on: gastric secretion stimulated by the gastrin; experiment: Antagonist effect: inhibition of gastrin (minigastrin)-stimulated acid secretion, stomach of a reperfused, anaesthetized rat; format: in vivo
Description: (§1) The compounds according to the invention were studied as far as their therapeutical properties are concerned. More particularly, these compounds were studied in vivo as far as their gastric secretory effect in the rat is concerned. The model chosen for measuring the secretory effect is that of the stomach of a reperfused, anaesthetized rat. The protocol followed is a modification of the one described previously by Ghosh and Schild. A male rat of Wistar strain, weighing 300 g, having fasted for 18 hours, is anaesthetized with urethane (10% solution, 1.5 ml/100 g i.p.). A tracheotomy is then made, as well as a catheterism of the vein of the penis which will allow i.v. administration of the peptides. A cannula is then placed in the oesophagus up to the cardiac orifice and a second cannula in the duodenum (by a duodenotomy made about 3 cm from the pylorus) up to the antral gastric zone. A propionic-succinic solute (pH 5.5) which gives a linear variation of the pH as a function of the concentration of H^+ ions is used for perfusing the stomach in open or closed circuit with a flow rate of 3 ml/min. The body temperature, as well as that of the solute, is monitored and maintained at 30° C. The acid secretion of the stomach will bring about a variation in pH detected by the glass half-cell and recorded as a function of time. After stabilization of the basal secretion, gastrin is injected by the intravenous route, either in perfusion or in a single injection. The response is recorded as a function of time and the quantity of acid secretion is measured on the recording by difference with the basal secretion. The same experiment is carried out either by injecting the peptide to be studied i.v. on a plateau of acid secretion stimulated by the gastrin, or by associating the peptide with the stimulant in variable ratios of concentration. Finally, the peptide is administered alone at different doses in order to examine its agonist effect.

[2] = tested on: gastric secretion; experiment: Agonist effect: gastric secretory effect of the peptide administered alone i.v., stomach of a reperfused, anaesthetized rat; format: in vivo; conditions: anaesthetized male Wistar rat
Description: as §1

[3] = agonist minigastrin 0.6 μg/kg (single), dose of antagonist 1.5 mg/kg i.v.

Molecule | Inhibiting effect (%) ([1]; agonist minigastrin 0.6 μg/kg (single), dose of antagonist 1.2 mg/kg i.v.) | Secretary effect (40 mins.) ([2]; dose 5000 μg/kg) | Inhibiting effect (%) [1, 3] | Secretary effect (40 mins.) ([2]; dose 10000 μg/kg) | Inhibiting effect (%) ([1]; agonist minigastrin 1.5 μg/kg/hr (perfusion), dose of antagonist 1.5 mg/kg i.v.) | Secretary effect (40 mins.) ([2]; dose 1000 μg/kg)
CSCC[C@H](NC(=O)[C@H](Cc1c[nH]c2ccccc12)NC(=O)CNC(=O)[C@H](Cc1ccc(O)cc1)NC(=O)OC(C)(C)C)C(=O)N[C@@H](CC(=O)O)C(N)=O [Example 4, Boc--Tyr--Gly--Trp--Met--Asp--NH2] (Boc-YGWMD-NH2) | 50.4% | 0.1 μmol H^+ | – | – | – | –
CSCC[C@H](NC(=O)[C@H](Cc1c[nH]c2ccccc12)NC(=O)CNC(=O)[C@H](Cc1ccc(O)cc1)NC(=O)[C@H](C)NC(=O)[C@H](CCC(=O)O)NC(=O)OCc1ccccc1)C(=O)N[C@@H](CC(=O)O)C(N)=O [Example 5, Z--Glu--Ala--Tyr--Gly--Trp--Met--Asp--NH2] (Cbz-EAYGWMD-NH2) | – | – | 50% | 0 μmol H^+ | – | –
Z--Tyr(HSO3)--Met--Gly--Trp--Met--Asp--NH2 [Example 3] | – | – | 47% | – | 47.4% | 0.15 μmol H^+
